Earlier results on three molecules are cited in patent US5186913A, “Tungsten-188/carrier-free rhenium-188 perrhenic acid generator system” (Martin Marietta Energy Systems, Inc., priority 1991, dated 1993).

Where two headings read alike, the source gives them in different places.

Assay in data set [1]: not given
This is another data set of the same source.

`[188W]` [W-188, tungsten-188]: for the setting “radioactive decay, parent isotope”, the t1/2 was 69.4 days.
Take `[188Re]` [Re-188, Rhenium-188]: the “energy of gamma photon” value (gamma emission) was 155 keV. The “abundance of gamma photon” value (gamma photon of 155 keV) was “about 15%”. Moreover, the half-life (radioactive decay) was 0.704 days. In addition, where the note is “β emission”, the “average energy of β emission” value is reported as 764 keV.
`[Re]` [Re, Rhenium]: the entries for the “distribution coefficient Dv (amount absorbed per liter resin bed/amount per liter solution)” value in data set [1] (0.1M HNO3) and in data set [1] (6M HNO3) were 1×10^3 and ~ 1, respectively.
